{
  "source": "paper PMC8246850",
  "about": "“Functional selective FPR1 signaling in favor of an activation of the neutrophil superoxide generating NOX2 complex” (Journal of Leukocyte Biology, 2020)",
  "molecular_target": "T1, FPR1 (Homo sapiens, UniProt P21462)",
  "T1 sequence (P21462 1-350)": "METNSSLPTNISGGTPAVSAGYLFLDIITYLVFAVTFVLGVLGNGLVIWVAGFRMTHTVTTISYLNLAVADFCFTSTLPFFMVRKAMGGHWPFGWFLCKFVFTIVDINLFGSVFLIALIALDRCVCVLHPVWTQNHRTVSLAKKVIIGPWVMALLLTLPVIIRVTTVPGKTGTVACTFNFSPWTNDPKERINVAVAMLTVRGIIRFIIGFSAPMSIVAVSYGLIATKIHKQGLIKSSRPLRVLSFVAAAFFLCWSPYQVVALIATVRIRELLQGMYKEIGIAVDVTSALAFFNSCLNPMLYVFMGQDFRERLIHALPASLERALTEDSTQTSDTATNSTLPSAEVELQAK",
  "assay": "human neutrophil NADPH-oxidase (superoxide) and Ca2+ assays with FPR1/FPR2 antagonists and cross-desensitization; weak β-arrestin recruitment in FPR1 CHO cells",
  "assay_type": "cell-based",
  "data": [
    {"substance": "RE-04-001", "values": [
      {"measurement": "EC50", "value": "~1", "unit": "nM"}
    ]}
  ]
}
